Measured values reported in patent US8357707B2, “2-carboxamide cycloamino ureas” (Novartis AG, priority 2009, dated 2013).

How the values were obtained:
Format in all cases: biochemical
[1] = molecular target: T1, PI3Kα (Homo sapiens, UniProt P42336); experiment: PI3K KinaseGlo assay, PI3Kalpha; settings: 10 nM enzyme, 1 μM ATP, 30 mins
T1 construct: His tag (C); made in house; host or cells: Tn5 insect cells, baculovirus BV-1075

[2] = molecular target: T2, PI3Kδ (Homo sapiens, UniProt O00329); experiment: PI3K KinaseGlo assay, PI3Kdelta; settings: 10 nM enzyme, 1 μM ATP, 30 mins
T2 construct: His tag (C); made in house; host or cells: Tn5 insect cells, baculovirus BV1060 (vector LR415)
T2 sequence (O00329 with tags, fused parts or gaps): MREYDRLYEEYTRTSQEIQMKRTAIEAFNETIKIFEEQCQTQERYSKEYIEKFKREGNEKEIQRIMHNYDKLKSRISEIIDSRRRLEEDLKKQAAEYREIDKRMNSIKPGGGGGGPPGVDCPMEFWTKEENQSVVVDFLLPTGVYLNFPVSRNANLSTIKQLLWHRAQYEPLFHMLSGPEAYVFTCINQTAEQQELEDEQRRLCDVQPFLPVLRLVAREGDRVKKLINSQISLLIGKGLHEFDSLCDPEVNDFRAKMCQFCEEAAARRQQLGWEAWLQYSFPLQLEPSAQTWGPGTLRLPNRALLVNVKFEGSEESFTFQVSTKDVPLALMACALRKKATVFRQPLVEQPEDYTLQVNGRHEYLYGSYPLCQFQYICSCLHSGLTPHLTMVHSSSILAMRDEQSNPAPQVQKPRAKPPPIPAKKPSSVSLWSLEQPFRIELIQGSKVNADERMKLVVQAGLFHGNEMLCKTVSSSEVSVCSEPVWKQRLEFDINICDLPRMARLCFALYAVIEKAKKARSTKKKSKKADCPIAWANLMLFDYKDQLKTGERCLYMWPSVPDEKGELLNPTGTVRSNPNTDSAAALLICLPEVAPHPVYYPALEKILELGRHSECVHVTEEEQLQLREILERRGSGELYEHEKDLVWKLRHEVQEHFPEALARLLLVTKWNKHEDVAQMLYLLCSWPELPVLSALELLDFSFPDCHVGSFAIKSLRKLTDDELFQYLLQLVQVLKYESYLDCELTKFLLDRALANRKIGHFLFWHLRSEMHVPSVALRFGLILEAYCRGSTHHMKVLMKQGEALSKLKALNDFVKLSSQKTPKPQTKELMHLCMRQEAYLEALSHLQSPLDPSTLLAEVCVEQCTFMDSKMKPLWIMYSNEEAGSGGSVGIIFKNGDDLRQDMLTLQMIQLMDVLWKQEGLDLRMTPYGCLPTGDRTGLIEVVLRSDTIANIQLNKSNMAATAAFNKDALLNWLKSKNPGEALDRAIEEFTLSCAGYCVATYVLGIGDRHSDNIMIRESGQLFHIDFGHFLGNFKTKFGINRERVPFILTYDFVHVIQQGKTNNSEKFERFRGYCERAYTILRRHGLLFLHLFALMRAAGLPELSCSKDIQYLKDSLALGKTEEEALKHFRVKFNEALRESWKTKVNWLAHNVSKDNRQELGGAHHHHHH

[3] = molecular target: T3, PI3Kβ (Homo sapiens, UniProt P42338); experiment: PI3K KinaseGlo assay, PI3Kbeta; settings: 25 nM enzyme, 1 μM ATP, 30 mins
T3 construct: His tag (C); made in house; host or cells: Tn5 insect cells, baculovirus BV949 (vector LR280)
T3 sequence (P42338 with tags, fused parts or gaps): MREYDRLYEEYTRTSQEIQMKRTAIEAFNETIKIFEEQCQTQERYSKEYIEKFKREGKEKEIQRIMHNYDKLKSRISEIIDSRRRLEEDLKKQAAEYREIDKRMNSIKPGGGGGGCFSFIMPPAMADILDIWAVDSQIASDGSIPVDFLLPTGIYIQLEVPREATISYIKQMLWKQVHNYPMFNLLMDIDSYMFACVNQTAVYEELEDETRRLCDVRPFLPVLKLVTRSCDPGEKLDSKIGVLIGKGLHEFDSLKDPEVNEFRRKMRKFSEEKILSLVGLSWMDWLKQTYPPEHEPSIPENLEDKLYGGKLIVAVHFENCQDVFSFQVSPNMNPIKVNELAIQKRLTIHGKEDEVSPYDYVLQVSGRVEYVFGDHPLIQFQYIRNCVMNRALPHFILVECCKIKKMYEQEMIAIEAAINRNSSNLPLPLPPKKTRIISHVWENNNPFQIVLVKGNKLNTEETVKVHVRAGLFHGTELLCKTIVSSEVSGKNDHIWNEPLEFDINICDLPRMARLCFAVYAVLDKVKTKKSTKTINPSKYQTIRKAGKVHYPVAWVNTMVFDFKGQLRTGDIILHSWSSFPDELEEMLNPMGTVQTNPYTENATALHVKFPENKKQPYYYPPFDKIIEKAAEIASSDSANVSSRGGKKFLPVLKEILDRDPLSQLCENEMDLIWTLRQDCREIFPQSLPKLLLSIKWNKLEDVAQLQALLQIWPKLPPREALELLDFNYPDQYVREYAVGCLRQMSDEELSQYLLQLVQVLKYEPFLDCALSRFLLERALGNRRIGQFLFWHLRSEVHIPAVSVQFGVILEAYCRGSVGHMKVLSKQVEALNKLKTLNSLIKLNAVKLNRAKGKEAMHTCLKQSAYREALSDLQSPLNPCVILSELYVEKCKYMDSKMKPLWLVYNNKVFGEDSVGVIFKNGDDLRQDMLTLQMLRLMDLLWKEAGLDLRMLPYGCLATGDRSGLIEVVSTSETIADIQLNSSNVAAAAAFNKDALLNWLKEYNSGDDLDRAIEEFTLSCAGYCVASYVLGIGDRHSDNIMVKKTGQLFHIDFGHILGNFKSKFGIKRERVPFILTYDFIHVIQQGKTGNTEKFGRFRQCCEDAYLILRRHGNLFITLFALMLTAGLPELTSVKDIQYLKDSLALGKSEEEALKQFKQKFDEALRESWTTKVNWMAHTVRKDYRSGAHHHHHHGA

[4] = molecular target: T4, PI3Kγ (Homo sapiens, UniProt P48736, Q459R); experiment: PI3K KinaseGlo assay, PI3Kgamma; settings: 150 nM enzyme, 1 μM ATP, 90 mins
T4 construct: Constructs lacking the N-terminal 144 aa; His tag (C); made in house; host or cells: Tn5 insect cells, baculovirus BV950; construct from the Roger Williams lab (MRC LMB)
T4 sequence (P48736 with tags, fused parts or gaps Q459R): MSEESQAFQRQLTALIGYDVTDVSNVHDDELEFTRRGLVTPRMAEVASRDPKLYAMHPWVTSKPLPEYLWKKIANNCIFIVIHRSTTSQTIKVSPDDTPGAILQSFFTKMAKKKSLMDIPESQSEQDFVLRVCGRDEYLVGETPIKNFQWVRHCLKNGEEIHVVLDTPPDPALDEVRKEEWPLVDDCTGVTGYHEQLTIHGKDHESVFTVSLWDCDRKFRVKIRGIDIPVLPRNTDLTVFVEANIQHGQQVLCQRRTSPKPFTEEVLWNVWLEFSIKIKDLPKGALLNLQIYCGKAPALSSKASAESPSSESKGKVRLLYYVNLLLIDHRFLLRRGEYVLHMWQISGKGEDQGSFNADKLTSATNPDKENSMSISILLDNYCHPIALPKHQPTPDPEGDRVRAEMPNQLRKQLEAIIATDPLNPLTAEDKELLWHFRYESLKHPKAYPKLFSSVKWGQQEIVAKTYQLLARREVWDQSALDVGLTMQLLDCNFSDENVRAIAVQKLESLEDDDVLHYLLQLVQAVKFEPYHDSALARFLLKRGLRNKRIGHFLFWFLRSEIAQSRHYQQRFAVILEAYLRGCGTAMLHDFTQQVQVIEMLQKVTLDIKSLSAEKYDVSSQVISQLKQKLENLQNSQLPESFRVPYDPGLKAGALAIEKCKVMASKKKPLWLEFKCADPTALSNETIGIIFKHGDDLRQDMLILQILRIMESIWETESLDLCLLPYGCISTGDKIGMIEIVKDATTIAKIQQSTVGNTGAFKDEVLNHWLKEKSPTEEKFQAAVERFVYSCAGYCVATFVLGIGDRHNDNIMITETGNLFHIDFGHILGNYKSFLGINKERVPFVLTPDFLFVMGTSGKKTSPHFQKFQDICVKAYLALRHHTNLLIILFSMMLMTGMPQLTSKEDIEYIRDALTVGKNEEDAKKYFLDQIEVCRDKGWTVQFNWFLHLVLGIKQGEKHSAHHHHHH

T1 sequence (P42336 with tags, fused parts or gaps): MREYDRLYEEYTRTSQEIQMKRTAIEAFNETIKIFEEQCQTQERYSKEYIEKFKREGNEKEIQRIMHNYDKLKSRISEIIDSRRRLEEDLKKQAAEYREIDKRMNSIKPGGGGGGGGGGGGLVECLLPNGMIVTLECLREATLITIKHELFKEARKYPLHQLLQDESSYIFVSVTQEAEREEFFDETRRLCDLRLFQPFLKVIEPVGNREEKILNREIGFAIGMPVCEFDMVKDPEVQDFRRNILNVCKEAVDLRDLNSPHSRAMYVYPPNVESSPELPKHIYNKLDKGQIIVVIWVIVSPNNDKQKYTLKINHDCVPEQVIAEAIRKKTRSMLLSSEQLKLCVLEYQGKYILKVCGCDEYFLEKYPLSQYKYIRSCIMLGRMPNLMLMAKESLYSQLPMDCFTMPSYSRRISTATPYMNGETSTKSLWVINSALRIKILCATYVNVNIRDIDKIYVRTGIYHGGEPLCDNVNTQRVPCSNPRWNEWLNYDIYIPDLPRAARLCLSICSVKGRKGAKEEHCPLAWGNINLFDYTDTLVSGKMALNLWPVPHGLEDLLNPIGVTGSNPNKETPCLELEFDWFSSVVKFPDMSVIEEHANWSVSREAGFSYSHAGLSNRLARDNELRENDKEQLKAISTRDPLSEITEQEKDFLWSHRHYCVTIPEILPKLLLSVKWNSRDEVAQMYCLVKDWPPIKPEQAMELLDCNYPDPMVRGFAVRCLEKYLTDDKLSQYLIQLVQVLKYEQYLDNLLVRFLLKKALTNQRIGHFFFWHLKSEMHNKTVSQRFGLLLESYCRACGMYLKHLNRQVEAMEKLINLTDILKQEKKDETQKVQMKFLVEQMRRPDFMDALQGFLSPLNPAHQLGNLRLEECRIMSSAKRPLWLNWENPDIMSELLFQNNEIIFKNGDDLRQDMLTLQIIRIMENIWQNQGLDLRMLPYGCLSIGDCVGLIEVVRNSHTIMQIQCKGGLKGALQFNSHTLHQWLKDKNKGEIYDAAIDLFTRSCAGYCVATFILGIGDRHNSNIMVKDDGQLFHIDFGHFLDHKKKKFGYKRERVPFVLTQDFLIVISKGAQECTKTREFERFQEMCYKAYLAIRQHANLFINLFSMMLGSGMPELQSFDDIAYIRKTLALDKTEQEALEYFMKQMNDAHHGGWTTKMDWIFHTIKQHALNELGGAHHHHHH

## CC(C)(C)c1ncc2c(n1)-c1sc(NC(=O)N3CC[C@@H](O)[C@H]3C(N)=O)nc1CC2 [Example 38, (2S,3R)-3-Hydroxy-pyrrolidine-1,2-dicarboxylic acid 2-amide 1-[(8-tert-butyl-4,5-dihydro-thiazolo[4,5-h]quinazolin-2-yl)-amide]]
[1]
  IC50: 9 nM
[2]
  IC50: 44 nM
[3]
  IC50: 866 nM

## CCN(CC)c1ncc2c(n1)-c1sc(NC(=O)N3CC[C@@H](C)[C@H]3C(N)=O)nc1CC2 [Example 21, (2S,3R)-3-Methyl-pyrrolidine-1,2-dicarboxylic acid 2-amide 1-[(8-diethylamino-4,5-dihydro-thiazolo[4,5-h]quinazolin-2-yl)-amide]]
[1]
  IC50: < 3 nM
[2]
  IC50: 36 nM
[3]
  IC50: 519 nM
[4]
  IC50: 237 nM

## CC(C)(C)c1nc2c(s1)CCc1nc(NC(=O)N3CC[C@@H](CN4CCOCC4)[C@H]3C(N)=O)sc1-2 [Example 41, (2S,3S)-3-Morpholin-4-ylmethyl-pyrrolidine-1,2-dicarboxylic acid 2-amide 1-[(7-tert-butyl-4,5-dihydro-benzo[1,2-d;3,4-d′]bisthiazol-2-yl)-amide]]
[1]
  IC50: 24 nM
[2]
  IC50: 496 nM
[3]
  IC50: 3050 nM

## CCN(CC)c1ncc2c(n1)-c1sc(NC(=O)N3CC[C@H]3C(N)=O)nc1CC2 [Example 13, (S)-Azetidine-1,2-dicarboxylic acid 2-amide 1-[(8-diethylamino-4,5-dihydro-thiazolo[4,5-h]quinazolin-2-yl)-amide]]
[1]
  IC50: 9 nM
[2]
  IC50: 118 nM
[3]
  IC50: 277 nM
[4]
  IC50: 104 nM

## CC(C)(CF)c1nc2c(s1)CCc1nc(NC(=O)N3CCC[C@H]3C(N)=O)sc1-2 [Example 32, (S)-Pyrrolidine-1,2-dicarboxylic acid 2-amide 1-{[7-(2-fluoro-1,1-dimethyl-ethyl)-4,5-dihydro-benzo[1,2-d;3,4-d′]bisthiazol-2-yl]-amide}]
[1]
  IC50: 7 nM
[2]
  IC50: 43 nM
[3]
  IC50: 1090 nM
[4]
  IC50: 131 nM

## CCN(CC)c1ncc2c(n1)-c1sc(NC(=O)N3CCC[C@@]3(COC)C(N)=O)nc1CC2 [Example 5, (R)-2-Methoxymethyl-pyrrolidine-1,2-dicarboxylic acid 2-amide 1-[(8-diethylamino-4,5-dihydro-thiazolo[4,5-h]quinazolin-2-yl)-amide]]
[1]
  IC50: 5.5 nM
[2]
  IC50: 46 nM
[3]
  IC50: 47 nM
[4]
  IC50: 153 nM

## CC(C)(C)c1nc2c(s1)CCc1nc(NC(=O)N3CC[C@H]3C(N)=O)sc1-2 [Example 30, (S)-Azetidine-1,2-dicarboxylic acid 2-amide 1-[(7-tert-butyl-4,5-dihydro-benzo[1,2-d;3,4-d′]bisthiazol-2-yl)-amide]]
[1]
  IC50: 23 nM
[2]
  IC50: 294 nM
[3]
  IC50: 2140 nM
[4]
  IC50: 119 nM

## COC[C@@H]1CCN(C(=O)Nc2nc3c(s2)-c2nc(C(C)(C)C(F)(F)F)sc2CC3)[C@@H]1C(N)=O [Example 50, (2S,3R)-3-Methoxymethyl-pyrrolidine-1,2-dicarboxylic acid 2-amide 1-{[7-(2,2,2-trifluoro-1,1-dimethyl-ethyl)-4,5-dihydro-benzo[1,2-d;3,4-d′]bisthiazol-2-yl]-amide}]
[1]
  IC50: 9 nM
[2]
  IC50: 113 nM
[3]
  IC50: 555 nM

## CCN(CC)c1ncc2c(n1)-c1sc(NC(=O)N3C[C@@H](F)C[C@H]3C(N)=O)nc1CC2 [Example 17, (2S,4S)-4-Fluoro-pyrrolidine-1,2-dicarboxylic acid 2-amide 1-[(8-diethylamino-4,5-dihydro-thiazolo[4,5-h]quinazolin-2-yl)-amide]]
[1]
  IC50: 8 nM
[2]
  IC50: 236 nM
[3]
  IC50: 389 nM
[4]
  IC50: 153 nM

## CC(C)(C)c1ncc2c(n1)-c1sc(NC(=O)N3CCC[C@@]3(CO)C(N)=O)nc1CC2 [Example 9, (R)-2-Hydroxymethyl-pyrrolidine-1,2-dicarboxylic acid 2-amide 1-[(8-tert-butyl-4,5-dihydro-thiazolo[4,5-h]quinazolin-2-yl)-amide]]
[1]
  IC50: 8.5 nM
[2]
  IC50: 72 nM
[3]
  IC50: 87 nM
[4]
  IC50: 141 nM

## CCN(CC)c1ncc2c(n1)-c1sc(NC(=O)N3C[C@@H](O)C[C@H]3C(N)=O)nc1CC2 [Example 26, (2S,4S)-4-Hydroxy-pyrrolidine-1,2-dicarboxylic acid 2-amide 1-[(8-diethylamino-4,5-dihydro-thiazolo[4,5-h]quinazolin-2-yl)-amide]]
[1]
  IC50: 6.5 nM
[2]
  IC50: 58 nM
[3]
  IC50: 328 nM
[4]
  IC50: 138 nM

## CN(Cc1cccc(F)c1)C[C@@]1(C(N)=O)CCCN1C(=O)Nc1nc2c(s1)-c1nc(C(C)(C)C)ncc1CC2 [Example 10, (R)-2-{[(3-Fluoro-benzyl)-methyl-amino]-methyl}-pyrrolidine-1,2-dicarboxylic acid 2-amide 1-[(8-tert-butyl-4,5-dihydro-thiazolo[4,5-h]quinazolin-2-yl)-amide]]
[1]
  IC50: 18 nM
[2]
  IC50: 54 nM
[3]
  IC50: 449 nM
[4]
  IC50: 282 nM

## (R)-2-Benzyl-pyrrolidine-1,2-dicarboxylic acid 2-amide 1-[(8-diethylamino-4,5-dihydro-thiazolo[4,5-h]quinazolin-2-yl)-amide] [Example 3]
[1]
  IC50: 45 nM
[2]
  IC50: 740 nM
[3]
  IC50: 127 nM
[4]
  IC50: 1590 nM

## CCN(CC)c1ncc2c(n1)-c1sc(NC(=O)N3CCC[C@H]3C(N)=O)nc1CC2 [Example 12, (S)-Pyrrolidine-1,2-dicarboxylic acid 2-amide 1-[(8-diethylamino-4,5-dihydro-thiazolo[4,5-h]quinazolin-2-yl)-amide]]
[1]
  IC50: 6 nM
[2]
  IC50: 53 nM
[3]
  IC50: 516 nM
[4]
  IC50: 230 nM

## CN(C)[C@@H]1C[C@@H](C(N)=O)N(C(=O)Nc2nc3c(s2)-c2nc(C(C)(C)C)sc2CC3)C1 [Example 31, (2S,4R)-4-Dimethylamino-pyrrolidine-1,2-dicarboxylic acid 2-amide 1-[(7-tert-butyl-4,5-dihydro-benzo[1,2-d;3,4-d′]bisthiazol-2-yl)-amide]]
[1]
  IC50: 51.5 nM
[2]
  IC50: 1940 nM
[3]
  IC50: 5820 nM
[4]
  IC50: 1230 nM

## CCN(CC)c1ncc2c(n1)-c1sc(NC(=O)N3CC[C@@H]4C[C@@]43C(N)=O)nc1CC2 [Example 19, (1S,5R)-2-Aza-bicyclo[3.1.0]hexane-1,2-dicarboxylic acid 1-amide 2-[(8-diethylamino-4,5-dihydro-thiazolo[4,5-h]quinazolin-2-yl)-amide]]
[1]
  IC50: 5.5 nM
[2]
  IC50: 77 nM
[3]
  IC50: 588 nM
[4]
  IC50: 123 nM

## CC(=O)NC[C@@H]1CCN(C(=O)Nc2nc3c(s2)-c2nc(C(C)(C)C)ncc2CC3)[C@@H]1C(N)=O [Example 36, (2S,3S)-3-(Acetylamino-methyl)-pyrrolidine-1,2-dicarboxylic acid 2-amide 1-[(8-tert-butyl-4,5-dihydro-thiazolo[4,5-h]quinazolin-2-yl)-amide]]
[1]
  IC50: 12 nM
[2]
  IC50: 40 nM
[3]
  IC50: 510 nM

## COC[C@@H]1CCN(C(=O)Nc2nc3c(s2)-c2nc(C(C)(C)C(F)(F)F)ncc2CC3)[C@@H]1C(N)=O [Example 45, (2S,3R)-3-Methoxymethyl-pyrrolidine-1,2-dicarboxylic acid 2-amide 1-{[8-(2,2,2-trifluoro-1,1-dimethyl-ethyl)-4,5-dihydro-thiazolo[4,5-h]quinazolin-2-yl]-amide}]
[1]
  IC50: 6.5 nM
[2]
  IC50: 24 nM
[3]
  IC50: 61 nM

## CN(C)C[C@@H]1CCN(C(=O)Nc2nc3c(s2)-c2cc(C(C)(C)C)ncc2OC3)[C@@H]1C(N)=O [Example 47, (2S,3S)-3-Dimethylaminomethyl-pyrrolidine-1,2-dicarboxylic acid 2-amide 1-[(8-tert-butyl-4H-5-oxa-1-thia-3,7-diaza-cyclopenta[a]naphthalen-2-yl)-amide]]
[1]
  IC50: 3 nM
[2]
  IC50: 1620 nM
[3]
  IC50: 6170 nM

## COC[C@@H]1CCN(C(=O)Nc2nc3c(s2)-c2nc(C(C)(C)C)ncc2CC3)[C@@H]1C(N)=O [Example 42, (2S,3R)-3-Methoxymethyl-pyrrolidine-1,2-dicarboxylic acid 2-amide 1-[(8-tert-butyl-4,5-dihydro-thiazolo[4,5-h]quinazolin-2-yl)-amide]]
[1]
  IC50: 8 nM
[2]
  IC50: 32 nM
[3]
  IC50: 409 nM

## CC(C)(C)c1ncc2c(n1)-c1sc(NC(=O)N3CC[C@@H](CN4CCOCC4)[C@H]3C(N)=O)nc1CC2 [Example 37, (2S,3S)-3-Morpholin-4-ylmethyl-pyrrolidine-1,2-dicarboxylic acid 2-amide 1-[(8-tert-butyl-4,5-dihydro-thiazolo[4,5-h]quinazolin-2-yl)-amide]]
[1]
  IC50: 4 nM
[2]
  IC50: 19 nM
[3]
  IC50: 182 nM

## C[C@@H]1CCN(C(=O)Nc2nc3c(s2)-c2cc(C(C)(C)C)ncc2OC3)[C@@H]1C(N)=O [Example 46, (2S,3R)-3-Methyl-pyrrolidine-1,2-dicarboxylic acid 2-amide 1-[(8-tert-butyl-4H-5-oxa-1-thia-3,7-diaza-cyclopenta[a]naphthalen-2-yl)-amide]]
[1]
  IC50: 5.5 nM
[2]
  IC50: 157 nM
[3]
  IC50: 1150 nM

## C[C@@H]1CCN(C(=O)Nc2nc3c(s2)-c2cc(C(C)(C)C(F)(F)F)ncc2OC3)[C@@H]1C(N)=O [Example 48, (2S,3R)-3-Methyl-pyrrolidine-1,2-dicarboxylic acid 2-amide 1-{[8-(2,2,2-trifluoro-1,1-dimethyl-ethyl)-4H-5-oxa-1-thia-3,7-diaza-cyclopenta[a]naphthalen-2-yl]-amide}]
[1]
  IC50: 6 nM
[2]
  IC50: 19 nM
[3]
  IC50: 920 nM
